The target in this test is recombinant TLR4 (Homo sapiens, UniProt O00206). Description: Interaction with TLR4 by surface plasmon resonance. The following applies: 0-800 μg/ml, 10 μl/min, 120 seconds. It is filed as binding. The source says: In order to immobilize a target receptor on an assay chip, the receptor was immobilized on the chip by flowing recombinant TLR4 while flowing an EDC/NHS solvent. Thereafter, ethanolamine was flowed to remove weakly immobilized or non-immobilized receptor on the chip.
Chain of recombinant TLR4 (O00206 24-839, species assumed): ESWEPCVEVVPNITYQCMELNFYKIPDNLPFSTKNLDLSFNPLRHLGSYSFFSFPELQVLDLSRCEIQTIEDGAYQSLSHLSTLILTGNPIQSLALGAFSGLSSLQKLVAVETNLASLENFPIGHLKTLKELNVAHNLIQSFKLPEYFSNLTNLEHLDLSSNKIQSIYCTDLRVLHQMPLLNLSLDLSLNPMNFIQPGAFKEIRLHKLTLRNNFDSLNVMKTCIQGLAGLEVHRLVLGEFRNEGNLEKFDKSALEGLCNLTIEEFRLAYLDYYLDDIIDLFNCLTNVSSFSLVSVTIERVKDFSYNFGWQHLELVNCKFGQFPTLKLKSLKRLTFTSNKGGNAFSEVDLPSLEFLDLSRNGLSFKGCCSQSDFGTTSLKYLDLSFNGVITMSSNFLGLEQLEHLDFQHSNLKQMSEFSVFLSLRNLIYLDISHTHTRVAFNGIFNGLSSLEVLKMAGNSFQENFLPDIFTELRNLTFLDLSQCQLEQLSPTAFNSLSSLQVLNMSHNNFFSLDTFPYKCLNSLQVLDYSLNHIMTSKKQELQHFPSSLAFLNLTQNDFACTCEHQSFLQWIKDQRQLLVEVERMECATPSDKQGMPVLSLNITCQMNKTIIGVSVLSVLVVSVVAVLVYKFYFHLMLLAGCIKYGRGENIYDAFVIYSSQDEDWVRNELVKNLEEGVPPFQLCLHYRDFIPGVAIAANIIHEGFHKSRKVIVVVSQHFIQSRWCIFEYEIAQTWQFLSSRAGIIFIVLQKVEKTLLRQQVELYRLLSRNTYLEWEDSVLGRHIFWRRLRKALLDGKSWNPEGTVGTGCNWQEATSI
On the technique in general: In SPR one partner is held on a chip, and binding of the other changes the refractive index at the surface.

Results on 1 substance are retold here after patent US20250319191A1, “PHARMACEUTICAL COMPOSITION COMPRISING HYALURONIC ACID COMPLEX FOR PREVENTION OR TREATMENT OF SKIN DISEASE” (AJOU UNIVERSITY INDUSTRY-ACADEMIC COOPERATION FOUNDATION, priority 2021, published 2025).

Regarding hyaluronic acid [10 kDa free HA], the “change in response unit (RU) value” was “the increase in RU value identified in the HACN group was not observed”.
